Results reported in ChEMBL document CHEMBL2331526, “Synthesis and characterization of novel quick-release propofol prodrug via lactonization” (Bioorg Med Chem Lett, 2013).
Active and inactive are the calls of the source. The rule behind the calls is not given here.

Key:
Rattus norvegicus [1] = experiment: Anesthetic effect in Sprague-Dawley rat assessed as onset time of disappearance of the righting reflex at 2 times ED50, iv; assay type: functional
[2] = Therapeutic index, ratio of LD50 for Sprague-Dawley rat to ED50 for Sprague-Dawley rat; assay type: organism-based; conditions: in vivo, read-out: TI
Rattus norvegicus [3] = experiment: Anesthetic effect in iv dosed Sprague-Dawley rat assessed as disappearance of the righting reflex; assay type: functional
[4] = Toxicity in iv dosed Sprague-Dawley rat; assay type: organism-based; conditions: in vivo
Rattus norvegicus [5] = experiment: Anesthetic effect in Sprague-Dawley rat assessed as duration time of disappearance of righting reflex to recovery of righting reflex at 2 times ED50, iv; assay type: functional
[6] = Solubility of the compound in water; assay type: physicochemical; conditions: buffer
Rattus norvegicus [7] = experiment: Anesthetic effect in Sprague-Dawley rat assessed as disappearance of the righting reflex at 200 mg/kg, iv; assay type: functional, organism-based; set-up: dose 200 mg/kg
Rattus norvegicus [8] = experiment: Toxicity in Sprague-Dawley rat assessed as duration of systemic convulsions at 40 mg/kg, iv; assay type: organism-based; set-up: dose 40 mg/kg, route intravenous; conditions: in vivo
Rattus norvegicus [9] = experiment: Anesthetic effect in Sprague-Dawley rat assessed as disappearance of the righting reflex at 34 mg/kg, iv; assay type: functional, organism-based; set-up: dose 34 mg/kg
Rattus norvegicus [10] = experiment: Toxicity in Sprague-Dawley rat assessed as duration of systemic convulsions at 34 mg/kg, iv; assay type: organism-based; set-up: dose 34 mg/kg, route intravenous; conditions: in vivo
[11] = Drug degradation in aqueous ethanol at 5 umol/ml measured up to 4 hrs by HPLC analysis; assay type: physicochemical; conditions: buffer, 5000 µM
[12] = Drug degradation in 30% emulsion at 5 umol/ml measured up to 4 hrs by HPLC analysis; assay type: physicochemical; conditions: 5000 µM
Plasma = experiment: Prodrug activation in preheated rat plasma assessed as propofol release at 5 umol/ml measured up to 4 hrs by HPLC analysis; assay type: cell-free; conditions: 5000 µM

Work on CC(C)c1cccc(C(C)C)c1OCOP(=O)([O-])[O-].[Na+].[Na+] [FOSPROPOFOL DISODIUM] yielded a Time (Rattus norvegicus [1]) of 2.17 min, a selectivity ratio [2] of 4.69 and an ED50 (Rattus norvegicus [3]) of 34.8 mg/kg. The LD50 [4] was 163 mg/kg and the Time (Rattus norvegicus [5]) was 31.04 min.

CC(C)c1cccc(C(C)C)c1OC(=O)CCCOP(=O)([O-])[O-].[Na+].[Na+] gave a Time (Rattus norvegicus [1]) of 2.11 min, a selectivity ratio [2] of 6.48 and an ED50 (Rattus norvegicus [3]) of 44.5 mg/kg. For the same molecule, the LD50 [4] was 288 mg/kg, the solubility [6] was “soluble” and the Time (Rattus norvegicus [5]) was 27.49 min.

With CCCC(=O)Oc1c(C(C)C)cccc1C(C)C the Activity (Rattus norvegicus [7]) was “inactive” and the solubility [6] was “Insoluble”.

With CC(C)c1cccc(C(C)C)c1OC(=O)CCCOC(=O)CN.O=C(O)C(F)(F)F the Time (Rattus norvegicus [1]) was 0.26 min, the selectivity ratio [2] was 2.96 and the ED50 (Rattus norvegicus [3]) was 14.4 mg/kg. The LD50 [4] was 42.7 mg/kg, the solubility [6] was “soluble” and the Time (Rattus norvegicus [5]) was 12.74 min.

For CC(C)c1cccc(C(C)C)c1OCCCCO, the Time (Rattus norvegicus [8]) was 3.8 min, the Activity (Rattus norvegicus [9]) was “inactive” and the Activity (Rattus norvegicus [10]) was “Toxic”. For the same molecule, the solubility [6] was “Insoluble”.

Molecule CC(C)c1cccc(C(C)C)c1O [PROPOFOL] has a Time (Rattus norvegicus [1]) of 0 min, a selectivity ratio [2] of 4.12 and an ED50 (Rattus norvegicus [3]) of 6.57 mg/kg. For the same molecule, the LD50 [4] was 27.1 mg/kg and the Time (Rattus norvegicus [5]) was 8.41 min.

With CC(C)c1cccc(C(C)C)c1OC(=O)CCCO the Time (Rattus norvegicus [1]) was 0.06 min, the Stability [11] was “Stable” and the selectivity ratio [2] was 4.67. The ED50 (Rattus norvegicus [3]) was 17.5 mg/kg, the Stability [12] was “Stable” and the LD50 [4] was 81.5 mg/kg. The Drug metabolism (Plasma) was “Active” and the Time (Rattus norvegicus [5]) was 24.36 min.
